Reference: US20170044107A1, “Inhibitors of JMJD2C as Anticancer Agents” (The J. David Gladstone Institutes, priority 2014, published 2017)
Where a name gives a salt, the structure may show the parent alone.

Key:
Assay type in all cases: cell-based
[1] = system: CWR22Rv1 androgen-independent prostate cancer cells; assay: CellTiter-Glo Luminescent Cell Viability Assay, CWR22Rv1 cells; details: 48 hours treatment, % of survival normalized to DMSO control; for viability at 10 µM: CWR22Rv1, compound at 10 μM
Method: (§1) Cell viability assays were performed on three representative prostate cancer cell lines (i.e., CWR22Rvl, PC3 and DU145) to determine the effect of treatment with a series of 8-hydroxyquinoline derivatives.
(§2) Cell viability was assessed 48 hours after compound treatment with the CellTiter-Glo® Luminescent Cell Viability Assay (Promega), according to the manufacturer's protocol. Briefly, 5000 cells were plated into 96-well cell culture plates in DMEM supplemented with 10% FBS. After overnight incubation, compounds at indicated concentrations were added and the treatment was maintained for two days. At the end of compound treatment, 5.0 μL of CellTiter-Glo® Reagent was added to each well. Plates were returned to the incubator for 2 hours. Plates were then removed from the incubator and luminescence was measured in a standard luminescence plate reader. The luminescence signal was then used to calculate % of survival normalized to DMSO control treatment.

[2] = system: PC3 androgen-independent prostate cancer cells; assay: CellTiter-Glo Luminescent Cell Viability Assay, PC3 cells; details: 48 hours treatment, % of survival normalized to DMSO control; for viability at 2 µM: Homo sapiens, PC-3, compound at 2 μM
Method: as §1, §2

[3] = system: DU145 androgen-independent prostate cancer cells; assay: CellTiter-Glo Luminescent Cell Viability Assay, DU145 cells; details: 48 hours treatment, % of survival normalized to DMSO control; for viability at 2 µM: Homo sapiens, DU-145, compound at 2 μM
Method: as §1, §2

Molecule | viability at 10 µM [1] [%] | viability at 2 µM [2] [%] | viability at 2 µM [3] [%] | % CWR22Rv1 Survival (Compound at 10 μM) [1] [%] | % PC3 Survival (Compound at 2 μM) [2] [%] | % DU145 Survival (Compound at 2 μM) [3] [%]
CC(C)C(=O)NC(c1ccco1)c1ccc2cccnc2c1O (stereo not drawn) [SD70, N-(furan-2-yl(8-hydroxyquinolin-7-yl)methyl)isobutyramide] | 9 | 14 | 26 |  |  | 
CCCC(=O)NC(c1ccco1)c1cc(Cl)c2cccnc2c1O (stereo not drawn) [SD70-4, N-((5-chloro-8-hydroxyquinolin-7-yl)(furan-2-yl)methyl)butyramide] | 110 | 7 | 29 |  |  | 
CCC(=O)NC(c1ccccc1OC)c1cc(Cl)c2cccnc2c1O (stereo not drawn) [SD70-8, N-((5-chloro-8-hydroxyquinolin-7-yl)(2-methoxyphenyl)methyl)propionamide] | 10 | 61 | 42 |  |  | 
Oc1c(CN2CCCCC2)ccc2cccnc12 [SD70-20, 7-(piperidin-1-ylmethyl)quinolin-8-ol] | 99 | 98 | 88 |  |  | 
Oc1c(CN2CCN(c3ccccn3)CC2)ccc2cccnc12 [SD70-18, 7-((4-(pyridin-2-yl)piperazin-1-yl)methyl)quinolin-8-ol] | 27 | 125 | 110 |  |  | 
COc1ccc(C(=O)NC(c2ccco2)c2cc(Cl)c3cccnc3c2O)cc1 (stereo not drawn) [SD70-6, N-((5-chloro-8-hydroxyquinolin-7-yl)(furan-2-yl)methyl)-4-methoxybenzamide] | 21 | 24 | 50 |  |  | 
CCC(=O)NC(c1ccco1)c1cc(Cl)c2cccnc2c1O (stereo not drawn) [SD70-1, N-((5-chloro-8-hydroxyquinolin-7-yl)(furan-2-yl)methyl)propionamide] | 93 | 47 | 87 |  |  | 
Oc1ccc(CNCCN2CCOCC2)c2cccnc12 [SD70-17, 5-((2-morpholinoethylamino)methyl)quinolin-8-ol] | 7 | 98 | 100 |  |  | 
CCC(=O)NC(c1ccco1)c1ccc2cccnc2c1O (stereo not drawn) [SD70-11, N-(furan-2-yl(8-hydroxyquinolin-7-yl)methyl)propionamide] | 16 | 79 | 120 |  |  | 
Oc1ccc(CCl)c2cccnc12 [SD70-15, 5-(chloromethyl)quinolin-8-ol hydrochloride] | 91 | 96 | 100 |  |  | 
N-((8-hydroxyquinolin-7-yl)(4-methoxyphenyl)methyl)isobutyramide isobutyramide [SD70-22] |  |  |  | 18 | 13 | 21
Oc1ccc(COCc2ccccc2)c2cccnc12 [SD70-16, 5-(benzyloxymethyl)quinolin-8-ol] | 20 | 14 | 19 |  |  | 
CC(C)C(=O)NC(c1ccc([N+](=O)[O-])cc1)c1ccc2cccnc2c1O (stereo not drawn) [SD70-25, N-((8-hydroxyquinolin-7-yl)(4-nitrophenyl)methyl)isobutyramide] | 16 |  |  |  |  | 
CC(C)C(=O)NC(c1ccco1)c1cc(Cl)c2cccnc2c1O (stereo not drawn) [SD70-2, N-((5-chloro-8-hydroxyquinolin-7-yl)(furan-2-yl)methyl)isobutyramide] | 100 | 9 | 32 |  |  | 
CCC(=O)NC(c1ccco1)c1cc([N+](=O)[O-])c2cccnc2c1O (stereo not drawn) [SD70-10, N-(furan-2-yl(8-hydroxy-5-nitroquinolin-7-yl)methyl)propionamide] | 110 | 93 | 100 |  |  | 
COc1ccc(C(NC(=O)C(C)C)c2ccc3cccnc3c2O)cc1OC (stereo not drawn) [SD70-24, N-((3,4-dimethoxyphenyl)(8-hydroxyquinolin-7-yl)methyl)isobutyramide] | 12 |  |  |  |  | 
O=C(NC(c1ccco1)c1cc(Cl)c2cccnc2c1O)c1cccnc1 (stereo not drawn) [SD70-5, N-((5-chloro-8-hydroxyquinolin-7-yl)(furan-2-yl)methyl)nicotinamide] | 94 | 23 | 31 |  |  | 
Oc1c(CNCCN2CCOCC2)ccc2cccnc12 [SD70-19, 7-((2-morpholinoethylamino)methyl)quinolin-8-ol] | 107 | 98 | 94 |  |  | 
CCC(=O)NC(c1ccc(OC)c(OC)c1)c1cc(Cl)c2cccnc2c1O (stereo not drawn) [SD70-9, N-((5-chloro-8-hydroxyquinolin-7-yl)(3,4-dimethoxyphenyl)methyl)propionamide] | 18 | 21 | 10 |  |  | 
COc1c(C(NC(=O)C(C)C)c2ccco2)ccc2cccnc12 (stereo not drawn) [SD70-23, N-(furan-2-yl(8-methoxyquinolin-7-yl)methyl)isobutyramide] | 96 |  |  |  |  | 
CC(C)CCNCc1ccc2cccnc2c1O [SD70-21, 7-((isopentylamino)methyl)quinolin-8-ol] | 93 | 93 | 100 |  |  | 
O=C(COc1ccccc1)NC(c1ccco1)c1cc(Cl)c2cccnc2c1O (stereo not drawn) [SD70-7, N-((5-chloro-8-hydroxyquinolin-7-yl)(furan-2-yl)methyl)-2-phenoxyacetamide] | 28 | 21 | 21 |  |  | 
CC(=O)NC(c1ccco1)c1cc(Cl)c2cccnc2c1O (stereo not drawn) [SD70-3, N-((5-chloro-8-hydroxyquinolin-7-yl)(furan-2-yl)methyl)acetamide] | 110 | 88 | 110 |  |  | 
